Experimental data: patent publication US9340555B2, “Compounds as tyrosine kinase modulators” (Allergan, Inc., priority 2009, dated 2016)

Assays:
[1] = molecular target: VEGFR1 (Homo sapiens (Human), UniProt P17948); assay: Enzymic VEGFR1; assay type: biochemical
[2] = molecular target: human VEGF receptor (VEGFR-2) (Homo sapiens (Human), UniProt P35968); assay: VEGFR2 Kinase Assay (Enzymic VEGFR2); assay type: biochemical; details: His-VEGFR-2 cytoplasmic domain, 3.6 µM ATP
Method: VEGFR2 Kinase Assay The cytoplasmic domain of the human VEGF receptor (VEGFR-2) was expressed as a Histidine-tagged fusion protein following infection of insect cells using an His engineered baculovirus. […] Kinase assays were performed in 96 well microtiter plates that were coated overnight with 30 µg of poly-Glu-[…]:1) in 10 mM Phosphate Buffered Saline (PBS), pH 7.2-7.4. The plates were incubated with 1% BSA and then washed four times with PBS prior to starting the reaction. […] Reactions were initiated by the addition 0.5 ng of purified protein. Following a ten minute incubation at 25° C., the reactions were washed four times with PBS containing 0.05% Tween-20. 100 µl of a monoclonal anti-phosphotyrosine antibody-peroxidase conjugate was diluted 1:10000 in PBS-Tween-20 and added to the wells for 30 minutes. Following four washes with PBS-Tween-20, 100 µl of 0-phenylenediamine Dihydrochloride in Phosphate-citrate buffer, containing urea hydrogen peroxide, was added to the wells for 7 minutes as a colorimetric substrate for the peroxidase. […] IC50 values for compound inhibition were calculated directly from graphs of optical density (arbitrary units) versus compound concentration following subtraction of blank values.

[3] = molecular target: PDGFRβ (Homo sapiens (Human), UniProt P09619); assay: Enzymic PDGFRβ; assay type: biochemical
[4] = molecular target: VEGFR2 (Homo sapiens (Human), UniProt P35968); assay: VEGF Stimulated Ca++ Signal In Vitro (Cellular VEGFR2, FLIPR); assay type: cell-based; details: HUVEC, VEGF stimulation (5 ng/mL), intracellular calcium
VEGFR2, sequence (P35968 20-1356): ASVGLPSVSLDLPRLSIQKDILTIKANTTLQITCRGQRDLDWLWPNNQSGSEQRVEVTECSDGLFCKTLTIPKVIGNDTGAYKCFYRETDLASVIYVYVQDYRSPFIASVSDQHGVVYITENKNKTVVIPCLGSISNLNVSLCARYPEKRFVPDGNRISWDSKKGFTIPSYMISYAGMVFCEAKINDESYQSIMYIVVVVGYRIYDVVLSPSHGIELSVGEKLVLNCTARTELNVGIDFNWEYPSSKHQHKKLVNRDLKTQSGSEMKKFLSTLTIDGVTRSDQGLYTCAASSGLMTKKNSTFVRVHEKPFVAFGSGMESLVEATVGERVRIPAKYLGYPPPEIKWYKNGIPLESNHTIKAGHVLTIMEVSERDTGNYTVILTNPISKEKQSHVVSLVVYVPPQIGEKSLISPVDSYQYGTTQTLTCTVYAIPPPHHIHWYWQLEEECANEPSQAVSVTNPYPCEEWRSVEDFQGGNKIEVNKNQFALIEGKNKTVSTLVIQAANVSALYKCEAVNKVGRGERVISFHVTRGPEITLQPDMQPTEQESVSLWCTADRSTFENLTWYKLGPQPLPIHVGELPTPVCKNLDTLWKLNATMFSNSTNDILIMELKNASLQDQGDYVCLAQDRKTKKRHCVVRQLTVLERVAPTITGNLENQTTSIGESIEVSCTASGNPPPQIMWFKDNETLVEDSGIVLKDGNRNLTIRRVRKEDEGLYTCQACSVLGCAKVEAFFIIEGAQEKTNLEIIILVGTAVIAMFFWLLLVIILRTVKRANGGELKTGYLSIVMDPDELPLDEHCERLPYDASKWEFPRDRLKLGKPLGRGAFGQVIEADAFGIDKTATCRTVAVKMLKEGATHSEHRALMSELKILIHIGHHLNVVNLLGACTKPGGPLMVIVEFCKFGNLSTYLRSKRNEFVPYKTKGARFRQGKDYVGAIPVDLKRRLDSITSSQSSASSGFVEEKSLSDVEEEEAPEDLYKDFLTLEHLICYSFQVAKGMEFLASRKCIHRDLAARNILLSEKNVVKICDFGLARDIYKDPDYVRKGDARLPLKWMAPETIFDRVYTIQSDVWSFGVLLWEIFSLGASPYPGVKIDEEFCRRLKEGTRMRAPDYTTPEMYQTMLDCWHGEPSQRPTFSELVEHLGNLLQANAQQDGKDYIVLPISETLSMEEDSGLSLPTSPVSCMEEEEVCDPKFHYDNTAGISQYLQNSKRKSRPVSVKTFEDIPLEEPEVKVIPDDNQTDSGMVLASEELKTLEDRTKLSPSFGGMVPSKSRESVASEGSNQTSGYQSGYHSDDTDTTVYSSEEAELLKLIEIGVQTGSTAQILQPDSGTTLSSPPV

human VEGF receptor (VEGFR-2), sequence (P35968 786-1356): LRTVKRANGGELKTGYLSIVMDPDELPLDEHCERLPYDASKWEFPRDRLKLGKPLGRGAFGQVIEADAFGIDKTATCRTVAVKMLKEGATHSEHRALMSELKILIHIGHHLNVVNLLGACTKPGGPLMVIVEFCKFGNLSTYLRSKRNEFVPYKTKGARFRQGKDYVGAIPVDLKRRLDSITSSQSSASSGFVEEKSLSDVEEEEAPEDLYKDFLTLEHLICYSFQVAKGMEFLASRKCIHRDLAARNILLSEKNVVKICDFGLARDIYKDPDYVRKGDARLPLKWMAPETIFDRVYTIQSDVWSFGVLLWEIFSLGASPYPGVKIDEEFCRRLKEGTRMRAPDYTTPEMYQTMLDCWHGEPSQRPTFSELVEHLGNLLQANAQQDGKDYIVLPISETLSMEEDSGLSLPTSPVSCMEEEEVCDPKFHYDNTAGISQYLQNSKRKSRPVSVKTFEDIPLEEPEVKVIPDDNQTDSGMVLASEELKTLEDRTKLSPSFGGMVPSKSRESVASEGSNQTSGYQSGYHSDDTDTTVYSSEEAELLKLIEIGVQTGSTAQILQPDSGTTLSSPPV
PDGFRβ, sequence (P09619 33-1106, species assumed): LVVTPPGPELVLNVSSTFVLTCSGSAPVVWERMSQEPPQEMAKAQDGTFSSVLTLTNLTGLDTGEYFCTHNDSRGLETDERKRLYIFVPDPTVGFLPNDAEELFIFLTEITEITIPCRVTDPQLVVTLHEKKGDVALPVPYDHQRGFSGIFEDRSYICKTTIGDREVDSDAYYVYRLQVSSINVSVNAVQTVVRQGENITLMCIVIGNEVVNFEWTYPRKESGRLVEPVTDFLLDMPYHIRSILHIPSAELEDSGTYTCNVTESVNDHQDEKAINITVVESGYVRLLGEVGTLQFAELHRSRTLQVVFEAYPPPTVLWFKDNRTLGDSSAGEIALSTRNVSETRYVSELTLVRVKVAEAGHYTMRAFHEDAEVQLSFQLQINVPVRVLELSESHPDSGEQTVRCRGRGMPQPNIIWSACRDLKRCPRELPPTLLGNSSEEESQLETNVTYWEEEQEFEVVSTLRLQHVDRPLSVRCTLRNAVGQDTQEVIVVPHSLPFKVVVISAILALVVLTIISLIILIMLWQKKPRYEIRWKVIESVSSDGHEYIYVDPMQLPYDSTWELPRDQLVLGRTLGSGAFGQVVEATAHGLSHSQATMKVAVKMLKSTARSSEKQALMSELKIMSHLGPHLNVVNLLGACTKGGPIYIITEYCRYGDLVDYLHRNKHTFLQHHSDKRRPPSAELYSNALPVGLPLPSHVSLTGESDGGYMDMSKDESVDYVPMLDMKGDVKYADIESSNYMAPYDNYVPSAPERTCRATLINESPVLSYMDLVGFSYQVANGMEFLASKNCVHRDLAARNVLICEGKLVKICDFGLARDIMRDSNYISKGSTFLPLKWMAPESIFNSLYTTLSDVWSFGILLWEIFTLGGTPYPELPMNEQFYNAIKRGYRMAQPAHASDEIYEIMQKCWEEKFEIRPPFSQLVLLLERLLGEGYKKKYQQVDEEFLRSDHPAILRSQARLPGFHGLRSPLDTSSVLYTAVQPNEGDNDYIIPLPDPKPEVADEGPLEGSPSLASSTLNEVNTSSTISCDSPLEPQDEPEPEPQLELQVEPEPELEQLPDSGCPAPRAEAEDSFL
VEGFR1, sequence (P17948 27-1338, species assumed): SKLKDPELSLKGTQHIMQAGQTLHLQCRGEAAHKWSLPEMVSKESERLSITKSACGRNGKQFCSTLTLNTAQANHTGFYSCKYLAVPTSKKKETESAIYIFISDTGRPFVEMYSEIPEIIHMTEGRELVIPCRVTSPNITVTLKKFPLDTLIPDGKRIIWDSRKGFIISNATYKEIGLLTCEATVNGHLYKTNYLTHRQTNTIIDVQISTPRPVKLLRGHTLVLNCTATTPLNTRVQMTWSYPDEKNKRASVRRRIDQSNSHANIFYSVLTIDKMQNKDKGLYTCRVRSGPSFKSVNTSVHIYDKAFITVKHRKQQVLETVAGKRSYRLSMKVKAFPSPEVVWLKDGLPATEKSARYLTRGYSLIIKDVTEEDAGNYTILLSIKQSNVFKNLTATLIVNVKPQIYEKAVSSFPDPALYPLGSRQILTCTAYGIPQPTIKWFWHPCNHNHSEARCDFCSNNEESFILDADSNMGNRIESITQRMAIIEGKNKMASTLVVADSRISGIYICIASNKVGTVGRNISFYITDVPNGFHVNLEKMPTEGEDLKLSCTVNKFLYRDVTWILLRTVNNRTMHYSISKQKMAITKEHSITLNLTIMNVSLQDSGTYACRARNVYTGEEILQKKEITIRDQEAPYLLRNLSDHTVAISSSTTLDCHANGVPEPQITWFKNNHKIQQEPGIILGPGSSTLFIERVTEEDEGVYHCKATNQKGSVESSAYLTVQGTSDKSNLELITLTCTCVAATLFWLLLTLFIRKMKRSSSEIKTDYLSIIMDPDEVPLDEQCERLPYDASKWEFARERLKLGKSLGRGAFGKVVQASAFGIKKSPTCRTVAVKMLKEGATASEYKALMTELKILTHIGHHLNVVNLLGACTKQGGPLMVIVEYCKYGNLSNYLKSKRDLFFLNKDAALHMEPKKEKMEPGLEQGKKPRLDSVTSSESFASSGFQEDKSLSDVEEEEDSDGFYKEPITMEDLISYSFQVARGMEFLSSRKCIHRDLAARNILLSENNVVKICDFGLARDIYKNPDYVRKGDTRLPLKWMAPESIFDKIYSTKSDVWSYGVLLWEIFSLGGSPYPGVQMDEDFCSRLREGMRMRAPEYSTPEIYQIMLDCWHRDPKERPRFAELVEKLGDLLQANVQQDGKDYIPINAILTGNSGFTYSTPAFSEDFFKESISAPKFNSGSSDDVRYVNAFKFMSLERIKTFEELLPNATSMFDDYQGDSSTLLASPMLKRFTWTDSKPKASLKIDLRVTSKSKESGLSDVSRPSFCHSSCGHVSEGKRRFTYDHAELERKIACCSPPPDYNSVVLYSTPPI

IC50 [1] | IC50 [2] | IC50 [3] | IC50 [4] | Structure (SMILES)
10 nM | 5 nM | 12 nM |  | COC(=O)CN(CCCNC(=O)c1cc2nccc(Oc3ccc(NC(=O)Nc4cc(C)ccc4F)c(F)c3)c2s1)CC(=O)OC [Example 26, dimethyl 2,2′-({3-[({7-[3-fluoro-4-({[(2-fluoro-5-methylphenyl)amino]carbonyl}amino)phenoxy]thieno[3,2-b]pyridin-2-yl}carbonyl)amino]propyl}imino)diacetate]
11 nM | 16 nM | 17 nM |  | COC(=O)CN(CCNC(=O)c1cc2nccc(Oc3ccc(NC(=O)Nc4cc(C)ccc4F)c(F)c3)c2s1)CC(=O)OC [Example 27, dimethyl 2,2′-({2-[({7-[3-fluoro-4-({[(2-fluoro-5-methylphenyl)amino]carbonyl}amino)phenoxy]thieno[3,2-b]pyridin-2-yl}carbonyl)amino]ethyl}imino)diacetate]
11 nM | 4 nM | 15 nM |  | Cc1ccc(F)c(NC(=O)Nc2ccc(Oc3ccnc4cc(C(=O)NCCN)sc34)cc2F)c1 [Example 32, N-(2-aminoethyl)-7-[3-fluoro-4-({[(2-fluoro-5-methylphenyl)amino]carbonyl}amino)phenoxy]thieno[3,2-b]pyridine-2-carboxamide]
60 nM | 24 nM | 69 nM |  | Cc1ccc(F)c(NC(=O)Nc2ccc(Oc3ccnc4cc(C(=O)NCCNC(=O)OC(C)(C)C)sc34)cc2F)c1 [Example 33]
8 nM | 7 nM |  |  | Cc1ccc(F)c(NC(=O)Nc2ccc(Oc3ccnc4cc(C(=O)NCCCN5CCCC(CO)C5)sc34)cc2F)c1 (stereo not drawn) [Example 36, 7-[3-fluoro-4-({[(2-fluoro-5-methylphenyl)amino]carbonyl}amino)phenoxy]-N-{3-[3-(hydroxymethyl)piperidin-1-yl]propyl}thieno[3,2-b]pyridine-2-carboxamide]
7 nM | 13 nM |  |  | Cc1ccc(F)c(NC(=O)Nc2ccc(Oc3ccnc4cc(C(=O)NCCCC(=O)O)sc34)cc2F)c1 [Example 64, 4-[({7-[3-fluoro-4-({[(2-fluoro-5-methylphenyl)amino]carbonyl}amino)phenoxy]thieno[3,2-b]pyridin-2-yl}carbonyl)amino]butanoic acid]
 | 4 nM | 16 nM | 16 nM | Cc1ccc(F)c(NC(=O)Nc2ccc(Oc3ccnc4cc(C(=O)NCCCN5CCCCC5)sc34)cc2)c1 [Example 66, 7-[4-({[(2-fluoro-5-methylphenyl)amino]carbonyl}amino)phenoxy]-N-(3-piperidin-1-ylpropyl)thieno[3,2-b]pyridine-2-carboxamide]
 | 11 nM | 277 nM | 16 nM | Cc1ccoc1C(=O)Nc1cccc(Oc2ccnc3cc(C(=O)NO)sc23)c1 [Example 75, N-hydroxy-7-{3-[(3-methyl-2-furoyl)amino]phenoxy}thieno[3,2-b]pyridine-2-carboxamide]

The remaining lines, values behind:

Structure (SMILES) | IC50 [1] | IC50 [2] | IC50 [3] | IC50 [4]
Cc1ccc(F)c(NC(=O)Nc2ccc(Oc3ccnc4cc(C(=O)NCCCN5CCOC(CO)C5)sc34)cc2)c1 (stereo not drawn) [Example 16, 7-[4-({[(2-fluoro-5-methylphenyl)amino]carbonyl}amino)phenoxy]-N-{3-[2-(hydroxymethyl)morpholin-4-yl]propyl}thieno[3,2-b]pyridine-2-carboxamide] | 10 nM | 7 nM | 15 nM | 
COC(=O)CNCCCNC(=O)c1cc2nccc(Oc3ccc(NC(=O)Nc4cc(C)ccc4F)c(F)c3)c2s1 [Example 25, methyl ({3-[({7-[3-fluoro-4-({[(2-fluoro-5-methylphenyl)amino]carbonyl}amino)phenoxy]thieno[3,2-b]pyridin-2-yl}carbonyl)amino]propyl}amino)acetate] | 8 nM | 5 nM | 11 nM | 
COC(=O)C1CCN(C(=O)c2cc3nccc(Oc4ccc(NC(=O)Nc5cc(C)ccc5F)c(F)c4)c3s2)C1 (stereo not drawn) [Example 28, methyl 1-({7-[3-fluoro-4-({[(2-fluoro-5-methylphenyl)amino]carbonyl}amino)phenoxy]thieno[3,2-b]pyridin-2-yl}carbonyl)pyrrolidine-3-carboxylate] | 8 nM | 5 nM | 17 nM | 
CCOC(=O)CN1CCN(C(=O)CN2CCN(C(=O)c3cc4nccc(Oc5ccc(NC(=O)Nc6cc(C)ccc6F)c(F)c5)c4s3)CC2)CC1 [Example 29, ethyl (4-{[4-({7-[3-fluoro-4-({[(2-fluoro-5-methylphenyl)amino]carbonyl}amino)phenoxy]thieno[3,2-b]pyridin-2-yl}carbonyl)piperazin-1-yl]acetyl}piperazin-1-yl)acetate] | 10 nM | 5 nM | 13 nM | 
CCOC(=O)CN1CCN(C(=O)c2cc3nccc(Oc4ccc(NC(=O)Nc5cc(C)ccc5F)c(F)c4)c3s2)CC1 [Example 30, ethyl [4-({7-[3-fluoro-4-({[(2-fluoro-5-methylphenyl)amino]carbonyl}amino)phenoxy]thieno[3,2-b]pyridin-2-yl}carbonyl)piperazin-1-yl]acetate] | 112 nM | 7 nM | 17 nM | 
COC(=O)CNCCNC(=O)c1cc2nccc(Oc3ccc(NC(=O)Nc4cc(C)ccc4F)c(F)c3)c2s1 [Example 31, methyl ({2-[({7-[3-fluoro-4-({[(2-fluoro-5-methylphenyl)amino]carbonyl}amino)phenoxy]thieno[3,2-b]pyridin-2-yl}carbonyl)amino]ethyl}amino)acetate] | 9 nM | 9 nM | 13 nM | 
Cc1ccc(F)c(NC(=O)Nc2ccc(Oc3ccnc4cc(C(=O)NCCCN5CCN(C)CC5)sc34)cc2F)c1 [Example 34, 7-[3-fluoro-4-({[(2-fluoro-5-methylphenyl)amino]carbonyl}amino)phenoxy]-N-[3-(4-methylpiperazin-1-yl)propyl]thieno[3,2-b]pyridine-2-carboxamide] | 6 nM | 3 nM | 11 nM | 
Cc1ccc(F)c(NC(=O)Nc2ccc(Oc3ccnc4cc(C(=O)NCCCN5CCOC(CO)C5)sc34)cc2F)c1 (stereo not drawn) [Example 37, 7-[3-fluoro-4-({[(2-fluoro-5-methylphenyl)amino]carbonyl}amino)phenoxy]-N-{3-[2-(hydroxymethyl)morpholin-4-yl]propyl}thieno[3,2-b]pyridine-2-carboxamide] | 9 nM | 7 nM |  | 1 nM
CCOC(=O)CCCNC(=O)c1cc2nccc(Oc3ccc(NC(=O)Nc4cc(C)ccc4F)cc3)c2s1 [Example 56, ethyl 4-[({7-[4-({[(2-fluoro-5-methylphenyl)amino]carbonyl}amino)phenoxy]thieno[3,2-b]pyridin-2-yl}carbonyl)amino]butanoate] | 16 nM | 20 nM |  | 
Cc1ccc(F)c(NC(=O)Nc2ccc(Oc3ccnc4cc(C(=O)NCCCN5CCN(C)CC5)sc34)cc2)c1 [Example 67, 7-[4-({[(2-fluoro-5-methylphenyl)amino]carbonyl}amino)phenoxy]-N-[3-(4-methylpiperazin-1-yl)propyl]thieno[3,2-b]pyridine-2-carboxamide] |  | 2 nM | 9 nM | 2 nM
Cc1ccc(F)c(NC(=O)Nc2ccc(Oc3ccnc4cc(C(=O)NCCCN5CCCC5)sc34)cc2)c1 [Example 68, 7-[4-({[(2-fluoro-5-methylphenyl)amino]carbonyl}amino)phenoxy]-N-(3-pyrrolidin-1-ylpropyl)thieno[3,2-b]pyridine-2-carboxamide] |  | 6 nM | 16 nM | 20 nM
Cc1ccoc1C(=O)Nc1cccc(Oc2ccnc3cc(C(=O)O)sc23)c1 [Example 72, 7-{3-[(3-methyl-2-furoyl)amino]phenoxy}thieno[3,2-b]pyridine-2-carboxylic acid] |  | 39 nM | 920 nM | 162 nM
Cc1ccc(F)c(NC(=O)c2cccc(Oc3ccnc4cc(C(=O)O)sc34)c2)c1 [Example 84, 7-(3-{[(2-fluoro-5-methylphenyl)amino]carbonyl}phenoxy)thieno[3,2-b]pyridine-2-carboxylic acid] |  | 20 nM | 223 nM | 87 nM
CCNC(=O)c1cc2nccc(Oc3cccc(C(=O)Nc4cc(C)ccc4F)c3)c2s1 [Example 85, N-ethyl-7-(3-{[(2-fluoro-5-methylphenyl)amino]carbonyl}phenoxy)thieno[3,2-b]pyridine-2-carboxamide] |  | 10 nM | 74 nM | 16 nM
CCN(CC)C(=O)c1cc2nccc(Oc3cccc(C(=O)Nc4cc(C)ccc4F)c3)c2s1 [Example 86, N,N-diethyl-7-(3-{[(2-fluoro-5-methylphenyl)amino]carbonyl}phenoxy)thieno[3,2-b]pyridine-2-carboxamide] |  | 7 nM | 206 nM | 64 nM
COC(=O)CNCCCNC(=O)c1cc2nccc(Oc3cccc(C(=O)Nc4cc(C)ccc4F)c3)c2s1 [Example 87, Methyl {[3-({[7-(3-{[(2-fluoro-5-methylphenyl)amino]carbonyl}phenoxy)thieno[3,2-b]pyridin-2-yl]carbonyl}amino)propyl]amino}acetate] |  | 16 nM | 59 nM | 9 nM
